Assay results taken from ChEMBL document CHEMBL1208715, “Cyclic amide bioisosterism: strategic application to the design and synthesis of HCV NS5B polymerase inhibitors” (Bioorg Med Chem Lett, 2010).

Legend:
[1] = Inhibition of HCV GT1b NS5B polymerase; parameters: species or system Hepacivirus hominis
Hepatitis C virus = experiment: Antiviral activity against […] Con1 GT1b infected in HuH7 cells by replicon assay; format: functional, Hepacivirus hominis; conditions: Huh-7
[2] = Cytotoxicity against human HuH7 cells by WST-1 assay; format: cell-based, Huh-7
[3] = Inhibition of wild type HCV GT1b NS5B polymerase; parameters: species or system Hepacivirus hominis
[4] = target: RNA-directed RNA polymerase (Hepacivirus hominis, UniProt O39930, L419M); experiment: Inhibition of HCV NS5B polymerase L419M mutant
RNA-directed RNA polymerase (Hepacivirus hominis, UniProt O39930, L419M), sequence (O39930 entry or part of it L419M): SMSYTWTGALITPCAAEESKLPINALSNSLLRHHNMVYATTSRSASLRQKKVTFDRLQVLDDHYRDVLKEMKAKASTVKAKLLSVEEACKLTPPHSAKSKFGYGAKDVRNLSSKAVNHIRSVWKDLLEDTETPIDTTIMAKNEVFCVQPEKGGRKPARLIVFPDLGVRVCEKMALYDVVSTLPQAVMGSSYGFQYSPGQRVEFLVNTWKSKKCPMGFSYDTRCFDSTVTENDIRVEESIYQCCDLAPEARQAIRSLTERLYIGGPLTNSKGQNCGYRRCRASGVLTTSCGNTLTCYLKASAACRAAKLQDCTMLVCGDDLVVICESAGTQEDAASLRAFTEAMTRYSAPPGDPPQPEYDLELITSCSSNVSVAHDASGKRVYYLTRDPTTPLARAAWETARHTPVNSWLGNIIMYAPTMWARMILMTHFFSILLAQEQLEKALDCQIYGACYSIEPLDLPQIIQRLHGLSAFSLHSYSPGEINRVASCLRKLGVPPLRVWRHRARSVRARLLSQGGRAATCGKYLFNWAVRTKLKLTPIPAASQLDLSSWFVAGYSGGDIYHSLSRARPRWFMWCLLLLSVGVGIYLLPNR

[5] = target: RNA-directed RNA polymerase (Hepacivirus hominis, UniProt O39930, M414T); experiment: Inhibition of HCV NS5B polymerase M414T mutant
RNA-directed RNA polymerase (Hepacivirus hominis, UniProt O39930, M414T), sequence (O39930 entry or part of it M414T): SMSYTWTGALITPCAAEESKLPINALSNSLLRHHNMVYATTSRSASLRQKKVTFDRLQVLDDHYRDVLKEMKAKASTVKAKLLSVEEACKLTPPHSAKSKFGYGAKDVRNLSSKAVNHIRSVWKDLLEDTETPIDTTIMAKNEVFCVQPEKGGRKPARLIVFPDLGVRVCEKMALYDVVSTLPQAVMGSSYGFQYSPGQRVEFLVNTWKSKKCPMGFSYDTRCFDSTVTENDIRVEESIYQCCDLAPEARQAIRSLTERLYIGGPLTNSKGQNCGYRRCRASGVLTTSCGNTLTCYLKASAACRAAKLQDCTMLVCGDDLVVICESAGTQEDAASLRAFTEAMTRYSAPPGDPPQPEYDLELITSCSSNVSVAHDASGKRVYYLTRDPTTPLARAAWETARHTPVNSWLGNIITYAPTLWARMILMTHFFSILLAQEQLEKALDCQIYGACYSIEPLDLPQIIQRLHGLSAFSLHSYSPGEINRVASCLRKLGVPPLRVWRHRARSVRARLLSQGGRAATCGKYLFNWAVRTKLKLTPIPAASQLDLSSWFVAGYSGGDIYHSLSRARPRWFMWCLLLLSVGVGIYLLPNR

SMILES	IC50 [1] [nM]	further results
C[C@H]1CC[C@H](c2ccccc2-c2cc(-c3ccccc3)sc2C(=O)O)CC1	42	EC50 (Hepatitis C virus): 12000 nM; CC50 [2]: 20000 nM
Cc1ccc(-c2cc(=O)[nH]n2-c2cc(-c3ccccc3)sc2C(=O)O)cc1	620	
Cc1ccc(-n2nncc2-c2cc(-c3ccccc3)sc2C(=O)O)cc1	110	Kd [3]: 4320 nM; Kd [4]: 23100 nM; Kd [5]: 3990 nM; EC50 (Hepatitis C virus): > 30000 nM; CC50 [2]: > 30000 nM
C[C@H]1CC[C@H](n2nncc2-c2cc(-c3ccccc3)sc2C(=O)O)CC1	100	Kd [3]: 860 nM; Kd [4]: 4480 nM; Kd [5]: 597 nM; EC50 (Hepatitis C virus): 15000 nM; CC50 [2]: > 50000 nM
CCCCOc1ccccc1-c1cc(-c2ccccc2)sc1C(=O)O	16000	
C[C@H]1CC[C@H](c2ncccc2-c2cc(-c3ccccc3)sc2C(=O)O)CC1	22	
CC1CCC(=Cc2ncccc2-c2cc(-c3ccccc3)sc2C(=O)O)CC1 (stereo unspecified)	170	
O=C(O)c1sc(-c2ccccc2)cc1-c1cc(=O)[nH]nc1-c1ccccc1	92000	
Cc1ccc(-c2cc(=O)[nH]nc2-c2cc(-c3ccccc3)sc2C(=O)O)cc1	3300	
O=C(O)c1sc(-c2ccccc2)cc1-c1cnnn1-c1ccccc1	17000	
O=C(O)c1sc(-c2ccccc2)cc1-c1cnnn1C1CCCCC1	340	
O=C(O)c1sc(-c2ccccc2)cc1-c1conc1-c1ccccc1	29000	
Cc1ccc(-c2nocc2-c2cc(-c3ccccc3)sc2C(=O)O)cc1	2500	
O=C(O)c1sc(-c2ccccc2)cc1-c1conc1C1CCCCC1	74	
C[C@H]1CC[C@H](c2nocc2-c2cc(-c3ccccc3)sc2C(=O)O)CC1	110	
O=C(O)c1sc(-c2ccccc2)cc1-c1conc1-c1ccc(Cl)cc1	2600	
O=C(O)c1sc(-c2ccccc2)cc1-c1conc1-c1ccc(F)cc1	5700	
C[C@H]1CC[C@H](c2cc(-c3cc(-c4ccccc4)sc3C(=O)O)on2)CC1	32000	
CC(C)N(c1cc(-c2ccccc2)sc1C(=O)O)C(=O)[C@H]1CC[C@H](C)CC1	28	Kd [3]: 41 nM; Kd [4]: 427 nM; Kd [5]: 33 nM; EC50 (Hepatitis C virus): 230 nM; CC50 [2]: 48000 nM
